The values below are quoted from earlier work in US6773669B1, “Flow electroporation chamber and method” (Maxcyte, Inc., priority 1995, dated 2004).

For series [1] the following is noted: experimental animals; DPG or precursors of DPG; transient.
In series [2] the target is T1, hemoglobin (Homo sapiens, UniProt P68871). As to conditions: higher than DPG; Benesch et al. 1977.
The target in series [3] is T1, hemoglobin. To be noted: pH 7.4, 37 degrees C; J. Biol. Chem. 1975.

T1 sequence (P68871 2-147 limits assumed): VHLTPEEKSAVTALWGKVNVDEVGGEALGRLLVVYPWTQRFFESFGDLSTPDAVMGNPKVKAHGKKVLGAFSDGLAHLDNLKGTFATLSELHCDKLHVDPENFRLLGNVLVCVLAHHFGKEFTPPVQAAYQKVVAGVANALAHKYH
T1 sequence (P69905 2-142 partner limits assumed): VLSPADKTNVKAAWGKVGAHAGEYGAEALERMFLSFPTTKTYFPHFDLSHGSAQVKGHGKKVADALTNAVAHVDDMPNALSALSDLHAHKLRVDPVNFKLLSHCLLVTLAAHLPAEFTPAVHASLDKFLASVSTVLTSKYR

Consider `O=C(O)C(COP(=O)(O)O)OP(=O)(O)O` (stereo not drawn) [DPG, 2,3-diphosphoglycerate], for which the “duration of elevation of oxygen deposition” value in series [1] was 6 to 12 h.
As for `O=P(O)(O)O[C@H]1[C@H](OP(=O)(O)O)[C@@H](OP(=O)(O)O)[C@H](OP(=O)(O)O)[C@@H](OP(=O)(O)O)[C@H]1OP(=O)(O)O` [IHP, inositol hexaphosphate], the “affinity to hemoglobin relative to DPG” value on hemoglobin [2] is 1000 fold. Further, on hemoglobin [3], the P50 of hemoglobin was not above 96.4 mm Hg.
